Measured values: ChEMBL document CHEMBL1142733, “Binding thermodynamics as a tool to investigate the mechanisms of drug-receptor interactions: thermodynamics of cytoplasmic steroid/nuclear receptors in comparison with membrane receptors” (J Med Chem, 2005)

Experiments:
[1] = target: T1, Adenosine receptor A1 (Homo sapiens) (UniProt P30542)
T1 sequence (whole entry): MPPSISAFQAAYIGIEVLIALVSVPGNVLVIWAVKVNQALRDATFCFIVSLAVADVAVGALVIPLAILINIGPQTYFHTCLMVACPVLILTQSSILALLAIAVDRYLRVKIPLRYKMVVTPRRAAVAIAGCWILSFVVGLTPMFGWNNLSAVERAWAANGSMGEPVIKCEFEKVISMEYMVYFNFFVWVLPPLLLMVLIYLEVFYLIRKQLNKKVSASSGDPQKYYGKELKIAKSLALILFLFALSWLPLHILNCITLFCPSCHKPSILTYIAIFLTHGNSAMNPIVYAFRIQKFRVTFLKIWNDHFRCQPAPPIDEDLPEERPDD
Description: (§1) Dissociation constant against Adenosine A1 receptor

Progesterone receptor [2] = target: T2, Progesterone receptor (Homo sapiens, UniProt P06401); test: Dissociation constant for [3H]-ORG2058 at human progesterone receptor at 310K
T2 sequence (P06401 whole entry): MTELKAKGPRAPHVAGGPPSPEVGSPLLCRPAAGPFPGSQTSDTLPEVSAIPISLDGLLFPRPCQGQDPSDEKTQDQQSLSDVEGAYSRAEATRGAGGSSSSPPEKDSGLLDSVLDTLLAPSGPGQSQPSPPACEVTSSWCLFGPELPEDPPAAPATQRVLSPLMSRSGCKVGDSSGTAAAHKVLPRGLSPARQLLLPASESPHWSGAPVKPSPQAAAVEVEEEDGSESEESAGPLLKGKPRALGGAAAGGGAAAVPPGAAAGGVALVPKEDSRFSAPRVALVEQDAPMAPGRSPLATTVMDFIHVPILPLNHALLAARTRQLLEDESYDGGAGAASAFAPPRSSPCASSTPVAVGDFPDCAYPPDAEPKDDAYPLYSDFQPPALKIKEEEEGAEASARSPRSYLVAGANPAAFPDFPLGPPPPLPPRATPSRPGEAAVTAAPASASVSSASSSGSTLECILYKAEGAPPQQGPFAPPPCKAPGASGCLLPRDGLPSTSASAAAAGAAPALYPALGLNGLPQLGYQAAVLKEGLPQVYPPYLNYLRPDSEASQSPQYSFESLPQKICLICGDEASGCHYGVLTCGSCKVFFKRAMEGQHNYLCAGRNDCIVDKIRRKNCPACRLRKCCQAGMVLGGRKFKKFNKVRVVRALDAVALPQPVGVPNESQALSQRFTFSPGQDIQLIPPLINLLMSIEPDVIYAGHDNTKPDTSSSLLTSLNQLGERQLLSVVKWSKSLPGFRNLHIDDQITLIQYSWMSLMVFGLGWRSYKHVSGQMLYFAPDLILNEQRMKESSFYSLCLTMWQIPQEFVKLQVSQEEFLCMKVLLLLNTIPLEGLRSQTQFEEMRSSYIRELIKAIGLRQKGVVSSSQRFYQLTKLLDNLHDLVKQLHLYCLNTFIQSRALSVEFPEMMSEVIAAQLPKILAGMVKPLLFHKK

Progesterone receptor [3] = target: T2, Progesterone receptor; test: Dissociation constant for [3H]ORG2058 at human progesterone receptor at 303 K
Progesterone receptor [4] = target: T2, Progesterone receptor; test: Dissociation constant for [3H]ORG2058 at human progesterone receptor at 293K
Progesterone receptor [5] = target: T2, Progesterone receptor; test: Dissociation constant for [3H]ORG2058 at human progesterone receptor at 298 K
Progesterone receptor [6] = target: T2, Progesterone receptor; test: Dissociation constant for [3H]ORG2058 at human progesterone receptor at 273 K
Progesterone receptor [7] = target: T2, Progesterone receptor; test: Dissociation constant for [3H]-ORG2058 at human progesterone receptor at 278 K
Progesterone receptor [8] = target: T2, Progesterone receptor; test: Dissociation constant for [3H]ORG2058 at human progesterone receptor at 308 K
Progesterone receptor [9] = target: T2, Progesterone receptor; test: Dissociation constant for [3H]ORG2058 at human progesterone receptor at 288 K
Progesterone receptor [10] = target: T2, Progesterone receptor; test: Dissociation constant for [3H]-ORG2058 at human progesterone receptor at 283 K
Adenosine receptor A1 = target: T3, Adenosine receptor A1 (Homo sapiens, UniProt P30542)
T3 sequence (P30542 whole entry): T1 sequence (whole entry)
Description: as §1

Work on `CC(C)Cn1c(=O)n(C)c(=O)c2nc[nH]c21` yielded a KD hydro [1] of 19000 µM.

For `CC[C@@H]1C[C@H]2[C@@H]3CCC4=CC(=O)CC[C@@H]4[C@H]3CC[C@]2(C)[C@H]1C(=O)CO`, the Kd (Progesterone receptor [2]) was 0.00542 µM, the Kd (Progesterone receptor [3]) was 0.00413 µM and the Kd (Progesterone receptor [4]) was 0.00264 µM. The Kd (Progesterone receptor [5]) was 0.00316 µM, the Kd (Progesterone receptor [6]) was 0.00328 µM and the Kd (Progesterone receptor [7]) was 0.0027 µM. It also gave a Kd (Progesterone receptor [8]) of 0.00456 µM, a Kd (Progesterone receptor [9]) of 0.00232 µM and a Kd (Progesterone receptor [10]) of 0.00249 µM.

`CC(C)Cn1c(=O)n(C)c(=O)c2[nH]cnc21` [ISOBUTYLMETHYLXANTHINE] was tested, and the Kd (Adenosine receptor A1) was 5.9 µM.
